Assay results as given in PubChem BioAssay (NCI).
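Step 1: Grow cells in 96-well plates. Step 2: Expose to compound for 48 hours at 5 concentrations. Step 3: Interpolate endpoints linearly; if unreached, use highest concentration. TGI is the concentration that stops growth completely.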

Legend:
Assay in all cases: NCI tumour cell line growth inhibition, 48 h
[1] = system: BT-549 breast
[2] = system: EKVX NSCLC
[3] = system: HT29 colon
[4] = system: LOX IMVI melanoma
[5] = system: NCI-H226 lung
[6] = system: OVCAR-8 ovarian
[7] = system: PC-3 prostate
[8] = system: SF-268 CNS
[9] = system: SR leukemia
[10] = system: TK-10 renal
[11] = system: UO-31 renal

Row | Compound | TGI [1] [µM] | TGI [2] [µM] | TGI [3] [µM] | TGI [4] [µM] | TGI [5] [µM] | TGI [6] [µM] | TGI [7] [µM] | TGI [8] [µM] | TGI [9] [µM] | TGI [10] [µM] | TGI [11] [µM]
1 | COc1ccc(NC=O)c(C(O)CCNC(C)=O)c1 (configuration not stated) | > 100 | > 100 | > 100 | > 100 | > 100 | > 100 | > 100 | > 100 | > 100 | > 100 | > 100
2 | C[N+](C)(C)CC1Cc2ccccc2C1=O (configuration not stated) | > 10 | > 10 | > 10 | > 10 | > 10 | > 3.16 | > 10 | > 10 | 7.11 | > 10 | > 10
3 | N#C/C(=C\c1ccc(Cl)cc1)c1nc2ccccc2c(=O)[nH]1 | 69.2 | > 100 | > 100 | > 100 | > 100 | > 100 | > 100 | > 100 | > 100 | > 100 | > 100
4 | CCOP(=O)(CS(C)=O)O[C@@H]1C[C@H](C)CC[C@H]1C(C)C (some centres not stated) | 17.3 | 11.2 | > 34.1 | 3.77 | 12.2 | 17.4 | 19.7 | 21.3 | > 100 | 16.3 | 7.15
5 | O=C(Cc1ccccc1)N/N=C(/CCN1CCCC1)CC(c1ccccc1)c1c(O)c2ccccc2oc1=O (configuration not stated) | > 100 | > 100 | > 100 | 44.4 | > 100 | > 100 | > 100 | > 100 | > 100 | > 100 | > 100
6 | CCCCCCCCCC(=O)OCC1(CO)C/C(=C/CC(C(C)C)C(C)C)C(=O)O1 (configuration not stated) | > 100 | > 100 | > 100 | > 100 | > 100 | > 100 | > 100 | > 100 | > 100 | > 100 | 95.8
7 | O=c1cc(-c2ccc(O)c(O)c2)oc2cc(OC3OC(CO)C(O)C(O)C3O)cc(O)c12 (configuration not stated) | > 100 | > 100 | > 100 | > 100 | > 100 | > 100 | > 100 | > 100 | > 100 | > 100 | > 100
8 | CC[C@@]1(O)C(=O)OCc2c1c(Cl)c1n(c2=O)Cc2cc3ccccc3nc2-1 | > 47.7 | > 70.5 | > 100 | 4.01 | 31.2 | 22.9 | > 100 | 67.7 | > 23.7 | > 79.5 | 9.22
9 | CN(C)c1ccc(C(C#N)N2CCCN(C(C#N)c3ccc(N(C)C)cc3)C2c2ccc(N(C)C)cc2)cc1 (configuration not stated) | > 100 | > 100 | > 100 | > 100 | > 100 | > 100 | > 100 | > 100 | > 100 | > 100 | > 100
10 | CC(=O)Nc1c(C)cc(OCC(=O)O)cc1C | > 100 | > 100 | > 100 | > 100 | > 100 | > 100 | > 100 | > 100 | > 100 | > 100 | > 100
11 | COc1ccc(/C=C/C(=O)NCC(NC(=O)/C=C/c2ccc(OC)c(OC)c2)C(=O)O)cc1OC (configuration not stated) | > 100 | > 100 | > 100 | > 100 | > 100 | > 100 | > 100 | > 100 | > 100 | > 100 | > 100
12 | CSc1nc(=S)[nH]c2n[nH]c(C)c12 | > 100 | > 100 | > 100 | > 100 | > 100 | > 100 | > 100 | > 100 | > 100 | > 100 | > 100
13 | CN(C)c1ccc(C2CC(=O)CC(c3ccc(N(C)C)cc3)C23C(=O)NC(=O)NC3=O)cc1 (configuration not stated) | > 25 | > 25 | > 25 | > 25 | > 25 | > 25 | > 25 | > 25 | > 25 | > 25 | > 25
14 | NC(=S)N/N=C/c1cc(CN2CCOCC2)c(N)cn1 | > 100 | > 100 | > 100 | > 100 | 45.8 | > 100 | > 100 | > 100 | > 100 | > 100 | > 100
15 | COc1ccc2oc(=N)c(C(N)=S)cc2c1 | 43.5 | 95.7 | > 100 | 33 | 44.3 | 38.9 | 93.7 | 64.3 | > 100 | 90.2 | 48.6
16 | O=c1nc2n(CCO)c(-c3ccccc3)c(-c3ccccc3)nc-2c(=O)[nH]1 | > 100 | > 100 | > 100 | > 100 | > 100 | > 100 | > 100 | > 100 | > 100 | > 100 | > 100
17 | CCCCCCN(C(=O)Oc1ccccc1)C(C#N)c1ccccc1 (configuration not stated) | > 100 | > 100 | > 100 | > 100 | > 100 | > 100 | > 100 | > 100 | > 100 | > 100 | > 100
